Data published in PMC10819767, “An ADAM10 Exosite Inhibitor Is Efficacious in an In Vivo Collagen-Induced Arthritis Model” (Pharmaceuticals, 2024).
Read-outs that look alike come from different tables or passages of the source.

Experiments:
[1] = Pharmacokinetics in plasma and synovial fluid after oral gavage; assay type: in vivo, Sprague Dawley male rats; details: rat; for Cmax / AUC(0-inf) / AUC(0-t) / Tmax: male, Sprague Dawley; for Cmax: po, 10 mg/kg
Description: Pharmacokinetics of CID 3117694 in Sprague Dawley male rats. The CID 3117694 structure was confirmed using H1 NMR (Figure S1), and it was determined to be >95% pure via HPLC (Figure S2). To determine if CID 3117694 can be used in in vivo RA efficacy model studies, we conducted an in vivo pharmacokinetic (PK) study. CID 3117694 was formulated in 10% DMSO, 40% PEG400, 30% PG, and 20% H2O at 2 mg/mL and administered via oral gavage to Sprague Dawley male rats at 10 mg/kg. Blood and synovial fluid were collected at 15 min, 30 min, 1, 2, 4, 8, and 24 h and quantitated using LC/MS. PK parameters were calculated using WinNonLin 8.3.4 software.
Pharmacokinetics of CID 3117694. All animal studies were conducted in accordance with NSU IACUC guidelines. Study protocol #2021.04.DM2 was approved using NSU IACUC before the commencement of the studies. CID 3117694 was formulated in 10% DMSO, 40% PEG400, 30% PG, and 20% H2O at 2 mg/mL and administered via an intragastric (ig) gavage to six Sprague Dawley male rats at 10 mg/kg. The animals were anesthetized using isoflurane. Blood and synovial fluid were collected at 15 min, 30 min, 1 h, 2 h, 4 h, 8 h, and 24 h after the administration of CID 3117694. Synovial fluid (SF) was collected using a 23-gauge needle connected to a mini peristaltic pump via perfusion tubing. Sterile saline was infused at a constant rate of 100 μL/min^−1. After the infusion of 100 μL of the vehicle (sterile saline), the outflow tubing was connected to the 25-gauge needle to minimize pressure build-up within the joint space. The fluid was infused and withdrawn at a constant rate until a 250 μL basal sample was collected in a 1.5 mL centrifuge tube. Samples were immediately frozen at −20 °C. Blood was collected using a 25 G needle directly from the heart. The samples were prepared for LC-MS/MS analysis using the acetonitrile protein precipitation technique. Briefly, blank plasma and subject samples (plasma and SF samples) were retrieved from the deep freezer and allowed to thaw. The calibration curve standards (10 to 10,000 μg/mL of CID 3117694) and quality control samples were prepared using blank plasma. The thawed samples were vortexed to ensure the complete mixing of the contents. A total of 50 µL of each sample was transferred to the vials, and 200 µL of an Internal Standard (IS, telmisartan) mixed with acetonitrile was added to all the samples and vortexed. Samples were kept on the shaker for 5 min to ensure complete mixing of contents. The samples were centrifuged at 4000 rpm and 20 °C for 10 min, and the supernatant was transferred into auto-injector vials and loaded into the auto-sampler. A total of 5 µL was injected onto the API-4500 Q TRAP LC-MS/MS system. The samples were separated on a Phenomenex, Synergi C18 4.6 mm × 50 mm, 4 µm HPLC column using a 10 mM ammonium acetate + 0.1% Formic acid buffer as solvent A and 100% Acetonitrile as solvent B. PK parameters were quantitated using WinNonLin (Certara, Princeton, NJ, USA).

IL-10 = test: RA serum marker ELISA, IL-10, CIA mice; assay type: in vivo, C57 BL/6 mice
Description: The sample size for therapeutic evaluation was calculated using power analysis based on experimental data from similar studies. In a two-sided test and setting the α value at 0.05 and desired power at 0.95, the sample size turned out to be 5 per group. We also expected deaths during the experiments; therefore, we used the formula Nt = N/1-q, where Nt is the number of mice initially used, N is the number required at the end of the study, and q is the proportion of attrition, which is generally 10%. Thus, at the end of the study period, we expected to have data from at least 6 mice per group, which is enough to attain statistical significance if it exists. Data were analyzed using a one-way ANOVA followed by Dunnett’s test compared with the vehicle control. At the end of the study, the mice were anesthetized and sacrificed using CO2 euthanasia. The hind paws of the mice were subjected to a histopathological examination, and the serum was analyzed for CRP, TNF-α, IL-6, and IL-10, as described in the below sections.
RA serum marker analysis. Blood was collected from the tail vein, and 100 µL was used for the assays. All assays were conducted using the manufacturer’s instructions for the respective assay kits. The following assay kits were purchased: Mouse TNF-α GENLISA™ ELISA (Krishgen BioSystems cat#KB2145, Mumbai, India), Mouse IL-10 GENLISA™ ELISA (Krishgen BioSystems cat#KB2072), Mouse hsC-Reactive Protein, hs-CRP GENLISA™ ELISA (Krishgen BioSystems cat#KLM0318), Mouse IL-6 GENLISA™ ELISA (Krishgen BioSystems cat#KB2068).

T-cell receptors = tested on: T-cell receptors; set-up: method as in PubChem bioassay 504894; details: ref PubChem bioassay 504894; cited from earlier work
caspase 8 = tested on: caspase 8; set-up: method as in PubChem database; details: ref PubChem database; cited from earlier work
multiple cell lines = tested on: multiple cell lines; set-up: method as in PubChem Assay IDs 1794763-1794787, 19, 20; details: 10 µM and up to 100 µM in some cases; ref PubChem Assay IDs 1794763-1794787, 19, 20; cited from earlier work
[2] = synovial fluid, 10 mg/kg oral gavage

`COc1cccc(C(=O)NNC(=O)C(=O)Nc2ccc(C)c(Cl)c2)c1` [CID 3117694] gave a Cmax ([1]; plasma, plasma, 10 mg/kg oral gavage, read-out: Cmax) of 6.64 µg/mL, a Cmax ([1]; plasma, plasma, 10 mg/kg oral gavage, read-out: Cmax, Concentration Plasma) of 18.4 µM and a Cmax ([1]; plasma, plasma, 10 mg/kg oral, read-out: Cmax in plasma) of 18.4 µM. For the same molecule, the Cmax ([1]; synovial fluid, synovial fluid (SF), 10 mg/kg oral gavage, read-out: Cmax) was 0.307 µg/mL, the Cmax ([1]; synovial fluid, synovial fluid, 10 mg/kg oral gavage, read-out: Cmax, Concentration SF) was 0.849 µM and the Cmax ([1]; synovial fluid, synovial fluid, 10 mg/kg oral, read-out: Cmax in SF) was 0.849 µM. For the same molecule, the AUC(0-inf) ([1]; plasma, 10 mg/kg oral gavage) was 173 µg·h/mL, the AUC(0-t) ([1]; plasma, 10 mg/kg oral gavage) was 33.1 µg·h/mL and the Tmax ([1]; plasma, 10 mg/kg oral gavage) was 1 h. For the same molecule, the AUC(0-inf) [1, 2] was 1.12 µg·h/mL, the AUC(0-t) [1, 2] was 1.1 µg·h/mL and the Tmax [1, 2] was 1 h. For the same molecule, the “concentration at the 24 h time point” value ([1]; 10 mg/kg ig gavage, 24 h) was “below the limit of quantitation (LOQ)”, the “oral bioavailability (in words)” value ([1]; 10 mg/kg oral) was “orally bioavailable” and the “time present in the blood at a steady-state concentration” value ([1]; 10 mg/kg oral) was “at least 8 h”. The “IL-10 blood level vs healthy control” value (IL-10; CID 3117694 50 mg/kg/day, indomethacin 2.5 mg/kg) was “decreased the markers to the level of the healthy control”, the “concentration of IL-10 in the blood of arthritic mice” value (IL-10; all tested doses (10, 30, 50 mg/kg), vs vehicle control) was “lowers” and the “activity in assay for activators of T-cell receptors” value (T-cell receptors) was “inactivity”. The “effect on caspase 8 activity” value (caspase 8) was “does not affect” and the “effect on cellular viability” value (multiple cell lines) was “no effect”.
